The results in this text go back to US6545002B1 (University of Virginia Patent Foundation, priority 1999, dated 2003).

The target in experiment [1] is T1, recombinant human A1 receptors (hA1) (Homo sapiens, UniProt P30542).
T1 sequence (P30542 1-326): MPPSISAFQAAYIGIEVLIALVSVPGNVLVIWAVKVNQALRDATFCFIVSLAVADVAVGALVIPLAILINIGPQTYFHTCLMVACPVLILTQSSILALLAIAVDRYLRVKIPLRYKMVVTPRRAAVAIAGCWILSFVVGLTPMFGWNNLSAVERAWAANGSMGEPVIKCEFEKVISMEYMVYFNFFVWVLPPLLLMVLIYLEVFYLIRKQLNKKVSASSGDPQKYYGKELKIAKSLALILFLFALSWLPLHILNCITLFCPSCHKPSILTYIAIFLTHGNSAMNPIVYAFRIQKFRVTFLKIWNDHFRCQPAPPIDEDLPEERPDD
Briefly: Radioligand binding ([3H]CPX) at recombinant human A1 receptors in HEK-293 cells.
Procedure: (§1) All non-radioactive compounds were initially dissolved in DMSO, and diluted with buffer to the final concentration, where the amount of DMSO never exceeded 2%. Incubations were terminated by rapid filtration over Whatman GF/B filters, using a Brandell cell harvester (Brandell, Gaithersburg, Md.). The tubes were rinsed three times with 3 mL buffer each.
(§2) At least six different concentrations of competitor, spanning 3 orders of magnitude adjusted appropriately for the IC50 of each compound, were used. IC50 values, calculated with the nonlinear regression method implemented in (Graph-Pad Prism, San Diego, Calif.), were converted to apparent Ki values as described.
(§3) The potency of the xanthine derivatives at human A2B receptors was evaluated using two binding assays. […] In order to determine selectivity, the xanthines were evaluated using standard binding assays at A1, A2A, and A3 receptors.

The target in experiment [2] is T2, human A3 receptors (hA3) (Homo sapiens, UniProt P0DMS8).
T2 construct: expressed in transfected cells; host or cells: HEK-293
T2 sequence (P0DMS8 1-318): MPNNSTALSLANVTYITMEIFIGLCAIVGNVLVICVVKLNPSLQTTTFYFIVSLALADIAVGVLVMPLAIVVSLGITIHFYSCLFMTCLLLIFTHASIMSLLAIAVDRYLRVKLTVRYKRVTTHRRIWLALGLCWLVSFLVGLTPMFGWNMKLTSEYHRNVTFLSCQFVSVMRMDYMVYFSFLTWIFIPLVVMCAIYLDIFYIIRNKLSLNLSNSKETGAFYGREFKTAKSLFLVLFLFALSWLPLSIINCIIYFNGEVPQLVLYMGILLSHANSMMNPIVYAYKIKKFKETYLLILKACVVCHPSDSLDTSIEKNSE
Briefly: Displacement of [125I]ABA binding at human A3 receptors expressed in HEK-293 cells. Conditions: Table 1; [125I]ABA, HEK-293; read-out: hA3 Ki or IC50. (In a radioligand displacement assay an active substance lowers the binding of a labelled ligand.)

Another experiment concerns the target T3, A3 receptors (r) (Rattus norvegicus, UniProt P28647).
T3 sequence (P28647 1-320): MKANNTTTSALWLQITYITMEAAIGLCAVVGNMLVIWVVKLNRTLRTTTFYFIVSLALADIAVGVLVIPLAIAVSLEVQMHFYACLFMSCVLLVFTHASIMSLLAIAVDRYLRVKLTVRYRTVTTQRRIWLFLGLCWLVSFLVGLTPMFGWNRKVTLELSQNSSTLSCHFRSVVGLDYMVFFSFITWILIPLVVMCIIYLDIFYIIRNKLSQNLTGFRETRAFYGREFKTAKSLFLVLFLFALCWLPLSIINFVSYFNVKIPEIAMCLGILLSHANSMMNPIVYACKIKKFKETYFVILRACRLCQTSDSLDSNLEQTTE
As to the kind of experiment: Binding at rat A3 receptors, values marked (r) in Table 1.

The next experiment deals with T4, rat A1 receptors (rA1) (Rattus norvegicus, UniProt P25099).
T4 construct: to A1 receptors from rat cerebral cortical membranes; from tissue; host or cells: rat cerebral cortical (brain) membranes
T4 sequence (P25099 1-326): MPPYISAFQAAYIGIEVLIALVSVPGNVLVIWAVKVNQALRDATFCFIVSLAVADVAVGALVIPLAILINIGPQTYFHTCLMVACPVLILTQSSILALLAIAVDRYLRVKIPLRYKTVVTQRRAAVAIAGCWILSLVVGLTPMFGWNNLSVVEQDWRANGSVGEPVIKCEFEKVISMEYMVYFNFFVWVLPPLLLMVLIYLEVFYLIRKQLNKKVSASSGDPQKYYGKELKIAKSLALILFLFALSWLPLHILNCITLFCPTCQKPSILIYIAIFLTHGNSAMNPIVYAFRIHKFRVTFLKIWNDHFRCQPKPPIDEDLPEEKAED
Briefly: Displacement of [3H]R-PIA binding in rat brain (cerebral cortical) membranes.

In experiment [3] the target is T5, human A2B receptors (hA2B) (Homo sapiens, UniProt P29275).
T5 construct: expressed in transfected cells; host or cells: HEK-293 (HEK-A2B, G418-selected)
T5 sequence (P29275 1-332): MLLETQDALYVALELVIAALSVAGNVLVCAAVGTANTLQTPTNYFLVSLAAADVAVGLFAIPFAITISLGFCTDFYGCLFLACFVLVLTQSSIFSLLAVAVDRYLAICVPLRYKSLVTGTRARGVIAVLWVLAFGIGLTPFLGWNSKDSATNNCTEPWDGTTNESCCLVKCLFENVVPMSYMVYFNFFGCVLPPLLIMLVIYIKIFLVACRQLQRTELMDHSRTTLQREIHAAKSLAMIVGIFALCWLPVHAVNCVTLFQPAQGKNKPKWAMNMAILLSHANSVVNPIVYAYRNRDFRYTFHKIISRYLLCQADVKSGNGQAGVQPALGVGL
Briefly: Radioligand binding ([125I]ABOPX / [3H]ZM241385) at human A2B receptors expressed in HEK-293 cells. Conditions: for hA1/hA2B / hA2A/hA2B / hA3/hA2B / rA1/hA2B: Ki ratio.

The target in experiment [4] is recombinant human A2A receptors (hA2A) (Homo sapiens, UniProt P29274). Briefly: Radioligand binding (125I-ZM241385) at recombinant human A2A receptors in HEK-293 cells.
Sequence of recombinant human A2A receptors (hA2A) (P29274 whole entry): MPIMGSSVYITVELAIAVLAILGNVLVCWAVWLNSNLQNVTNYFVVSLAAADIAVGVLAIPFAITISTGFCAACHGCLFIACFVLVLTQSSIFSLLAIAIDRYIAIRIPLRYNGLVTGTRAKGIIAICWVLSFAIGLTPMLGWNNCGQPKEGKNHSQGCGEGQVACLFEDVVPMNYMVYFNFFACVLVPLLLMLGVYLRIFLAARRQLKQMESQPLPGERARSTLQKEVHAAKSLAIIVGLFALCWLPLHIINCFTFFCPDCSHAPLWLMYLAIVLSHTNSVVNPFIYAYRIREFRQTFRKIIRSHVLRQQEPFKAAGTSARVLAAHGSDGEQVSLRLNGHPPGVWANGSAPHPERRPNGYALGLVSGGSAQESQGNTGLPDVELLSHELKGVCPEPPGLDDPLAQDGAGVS
Procedure: as §1, §2, §3
The next experiment concerns the target T6, rat A2A receptors (rA2A) (Rattus norvegicus, UniProt P30543).
T6 construct: to A2A receptors from rat striatal membranes was performed as described; from tissue; host or cells: rat striatal membranes
Briefly: Displacement of [3H]CGS 21680 binding in rat striatal membranes.

In experiment [5] the test system is myocardial infarction in dogs. Briefly: Ninety minute LAD coronary artery occlusion/reperfusion, infarct size by TTC staining. It is filed as in vivo, dog. The conditions noted are these: 200 nM intracoronary at 1 ml/min during occlusion and reperfusion, versus vehicle.
The target of experiment [6] is T2, human A3 receptors (hA3). Briefly: Displacement of [125I]AB-MECA binding at human A3 receptors expressed in HEK-293 cells (Table 4).
Setting [7] is: read-out: hA1 Ki, values marked (h), Table 1, recombinant human A1, HEK 293.
[8] abbreviates: Table 1, [3H]R-PIA, rat brain membranes, read-out: rA1 Ki or IC50.
The mark [9] stands for this setting: Table 1, [125I]ABOPX, HEK-293, read-out: hA2B Ki or IC50.
Setting [10] is: read-out: hA2A Ki, values marked (h), Table 1, recombinant human A2A, HEK 293.
Setting [11] is: Table 1, [3H]CGS 21680, rat striatal membranes, read-out: rA2A Ki or IC50.
The mark [12] stands for this setting: read-out: Ki value at human A2B receptors.
[13] abbreviates: read-out: hA1 Ki, values marked (h)^a, Table 4, vs [3H]CPX, HEK-293.
Where [14] appears, read: Table 4, unmarked value, first of two binding assays, read-out: hA2B Ki.
Where [15] appears, read: read-out: hA2A Ki, values marked (h)^a, Table 4, vs [125I]ZM241385, HEK-293.

Read-outs that look alike come from different tables or passages of the source.

T6 sequence (P30543 whole entry): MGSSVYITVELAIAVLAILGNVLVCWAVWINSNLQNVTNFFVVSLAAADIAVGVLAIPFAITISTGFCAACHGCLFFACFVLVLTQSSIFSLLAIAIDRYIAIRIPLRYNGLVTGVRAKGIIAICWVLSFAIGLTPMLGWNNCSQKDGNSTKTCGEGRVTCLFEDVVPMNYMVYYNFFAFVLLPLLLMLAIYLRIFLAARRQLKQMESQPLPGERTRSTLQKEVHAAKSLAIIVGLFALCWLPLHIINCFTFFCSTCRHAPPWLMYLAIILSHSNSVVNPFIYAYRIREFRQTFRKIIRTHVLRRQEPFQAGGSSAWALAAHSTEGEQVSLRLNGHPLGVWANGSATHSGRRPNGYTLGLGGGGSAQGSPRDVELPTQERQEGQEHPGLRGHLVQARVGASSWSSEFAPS

Turning to `CCCn1c(=O)c2[nH]c(-c3ccc(OCC(=O)O)cc3)nc2n(CCC)c1=O` [Compound 4a, 8-[4-[[[carboxy]methyl]oxy]phenyl]-1,3-dipropylxanthine], the results for the Ki (in experiment [1] (setting [7]); at human A3 receptors (hA3) [2]; at A3 receptors (r)) were 175 ± 57 nM, 3910 nM and 75700 nM, respectively.

On to `C=CCn1c(=O)c2[nH]c(-c3ccc(OCC(=O)O)cc3)nc2n(CC=C)c1=O` [Compound 5], for which the Ki in [1] (setting [7]) came out at 1660 nM; at rat A1 receptors (rA1) (setting [8]), 756 ± 147 nM; in experiment [3] (setting [9]), 141 ± 29 nM; in experiment [4] (setting [10]), 2370 nM; on rat A2A receptors (rA2A) (setting [11]), 4290 nM; on human A3 receptors (hA3) [2], 816 ± 91 nM. On A3 receptors (r), this compound displayed a Ki of 173000 nM. In addition, the hA1/hA2B in experiment [3] (Table 1) was found to be 12. The hA2A/hA2B in experiment [3] (Table 1) stood at 17. For the same compound, the hA3/hA2B in experiment [3] (Table 1) was found to be 5.8.

As for `CCCCn1c(=O)c2[nH]c(-c3ccc(OCC(=O)O)cc3)nc2n(CCCC)c1=O` [Compound 6], the inhibition constant (Ki) amounted to 149 ± 83 nM in [1] (setting [7]); 43.1 ± 9.9 nM on rat A1 receptors (rA1) (setting [8]); 48 ± 16.9 nM in experiment [3] (setting [9]); 2540 nM in experiment [4] (setting [10]); 874 ± 107 nM at rat A2A receptors (rA2A) (setting [11]); 90.3 ± 14.2 nM at human A3 receptors (hA3) [2]. For the same compound, the Ki on A3 receptors (r) amounted to 27500 nM. Moreover, the hA1/hA2B in experiment [3] (Table 1) was determined as 3.1. In experiment [3] (Table 1), the hA2A/hA2B came out at 53. Moreover, in experiment [3] (Table 1), the hA3/hA2B worked out at 1.9.

Regarding `CCCn1c(=O)c2[nH]c(-c3ccc(OCC(=O)Nc4ccc(C#N)cc4)cc3)nc2n(CCC)c1=O` [Compound 27, 8-[4-[((4-Cyano)phenylcarbamoylmethyl)oxy]phenyl]-1,3-di-(n-propyl)xanthine], the “infarct size / infarct area (IA) as %LV or %RA” value in experiment [5] was “significantly reduced the infarct area”. Also, the Ki worked out at 16.8 ± 3.6 nM at rat A1 receptors (rA1) (Table 2, read-out: rA1 Ki or IC50) and 612 ± 287 nM on rat A2A receptors (rA2A) (Table 2, read-out: rA2A Ki or IC50).

Regarding `CCCn1c(=O)c2[nH]c(-c3ccc(OCC(=O)NN4C(=O)[C@H]5CC=CC[C@H]5C4=O)cc3)nc2n(CCC)c1=O` [Compound 52, 8-[4-[(Carboxymethyl)oxy]phenyl]-1,3-di-(n-propyl)xanthine N,N-(cis-1,2,3,6-Tetrahydrophthaloyl)hydrazide], the Ki in experiment [1] was 129 nM; at rat A1 receptors (rA1) (Table 4, read-out: rA1 Ki), 36.4 ± 6.2 nM; in experiment [3] (setting [12]) it was 10 nM; in experiment [4], 301 nM; at rat A2A receptors (rA2A) (Table 4, read-out: rA2A Ki) it was 689 ± 477 nM; on human A3 receptors (hA3) [6] it was 370 ± 190 nM. Moreover, the rA1/hA2B in experiment [3] (Table 4) is listed as 3.6.

Regarding `CCCn1c(=O)c2[nH]c(-c3ccc(OCC(=O)NNC(=O)C4=C(C(=O)O)CCCC4)cc3)nc2n(CCC)c1=O` [Compound 55, 8-[4-[(Carboxymethyl)oxy]phenyl]-1,3-di-(n-propyl)xanthine N-[2-((1-Carboxy)-1-cyclohexene)-carbonyl]hydrazide], the inhibitory constant (Ki) is 145 nM in [1] (setting [13]); 47.2 ± 6.8 nM at rat A1 receptors (rA1) (Table 4, read-out: rA1 Ki); 17.3 ± 6.3 nM in experiment [3] (setting [14]); 17 nM in experiment [3] (setting [12]); 95.6 nM in experiment [4] (setting [15]); 422 ± 136 nM on rat A2A receptors (rA2A) (Table 4, read-out: rA2A Ki). This compound also came in with a Ki at human A3 receptors (hA3) [6] of 438 ± 109 nM. In addition, the rA1/hA2B in experiment [3] (Table 4) was determined as 2.7.

As to `CCCn1c(=O)c2[nH]c(-c3ccc(OCC(=O)NN4C(=O)CC[C@H](NC(=O)C(F)(F)F)C4=O)cc3)nc2n(CCC)c1=O` [Compound 61], the Ki in [1] is 149 nM; on rat A1 receptors (rA1) (Table 4, read-out: rA1 Ki), 53.5 ± 6.5 nM; in experiment [3] (setting [12]) it was 13 nM; in experiment [4] it was 178 nM; on rat A2A receptors (rA2A) (Table 4, read-out: rA2A Ki) it was 440 ± 106 nM; on human A3 receptors (hA3) [6], 726 ± 245 nM. Besides, in experiment [3] (Table 4), the rA1/hA2B turned out to be 4.1.

`CCCn1c(=O)c2[nH]c(-c3ccc(OCC(=O)NNC(=O)CNC(=O)CNC(=O)OCc4ccccc4)cc3)nc2n(CCC)c1=O` [Compound 64, 8-[4-[(Carboxymethyl)oxy]phenyl]-1,3-di-(n-propyl)xanthine N-(N-Benzyloxycarbonyl-glycylglycinyl)hydrazide]: the inhibition constant Ki in experiment [1] (setting [13]) was determined as 200 ± 22 nM; on rat A1 receptors (rA1) (Table 4, read-out: rA1 Ki), 36 ± 6.6 nM; in experiment [3] (setting [14]), 10.8 ± 5 nM; in experiment [3] (setting [12]), 11 nM; in [4] (setting [15]) it was 830 ± 84 nM; at rat A2A receptors (rA2A) (Table 4, read-out: rA2A Ki), 609 ± 95 nM. At human A3 receptors (hA3) [6], this compound came in with a Ki of 323 ± 47 nM. In addition, the rA1/hA2B in [3] (Table 4) amounted to 3.3.

By Ki is commonly meant a measure of affinity in units of concentration, obtained from inhibition or displacement.
